Results as given in US7022484B2, “Methods for treating neuropathological states and neurogenic inflammatory states and methods for identifying compounds useful therein” (Board of Regents, The University of Texas System, priority 2000, dated 2006).

Experiments:
[1] = tested on: protein tyrosine kinase (PTK); details: cited from earlier work
NMDA currents = details: patch clamp studies; cited from earlier work
rat arthritis model = assay: Paw withdrawal latency (PWL) to radiant heat in rat kaolin/carrageenan knee joint inflammation model; type: in vivo; details: spinal microdialysis pre-treatment; 4 hours after induction of arthritis
Protocol: All studies followed the guidelines of the Institute Animal Care and Use Committee, in accordance with the guidelines of the National Institutes of Health. All animals were hosted in a room with a constant ambient temperature of 22° C. and 12 hour light/dark cycle with free access to food and water. Eighty-five Sprague-Dawley rats (250–300 grams) total were used in experiments conducted for biochemical, behavioral, and immunocytochemistry studies. […] On Day 2 baseline behavioral testing was followed by infusion of agents for 1.5 hours (pretreatment) prior to induction of knee joint inflammation under brief anesthesia. Behavioral testing was repeated 4 hours after induction of joint inflammation. Anesthetized animals were either transcardially perfused with aldehydes for immunohistochemical studies or fresh, frozen tissues collected for biochemical studies.
A microdialysis fiber was implanted into the spinal dorsal horn of anesthetized rats (sodium pentobarbital, 50 mg/kg) one day prior to the induction of arthritis according to the procedure of Skilling et al. (J. Neurochem., 51:127–132 (1988)), as described in Sluka et al. (Neurosci. Lett., 145:141–144 (1992)). Briefly, a small midline incision was made in the skin over the T12 vertebral level. The vertebrae were cleared of muscle and two 1 millimeter (mm) holes were drilled in the lateral aspect of both sides of the T12 vertebrae to expose the L4 spinal segment. A microdialysis fiber ([…], 45,000 MW cut-off, Hospal, AN69, Hospal Industrie, Meyzieu, France), was passed transversely across the deep dorsal horn and stabilized with dental cement. The microdialysis fiber was then passed through the holes in the vertebrae and transversely through the dorsal horn of the spinal cord. A 2 mm section of the microdialysis fiber lies in the dorsal horn at the level of L3–4 segment. The tubing was coated with epoxy except for a permeable portion passing through the spinal grey matter. The microdialysis fiber was connected to PE20 tubing (Becton Dickinson and Company, San Mateo, Calif.) which was tunneled under the skin to the nape of the neck. Alternatively as a systemic control for drug administration, the microdialysis fiber was implanted only in the subcutaneous tissue over the back muscle and tunneled to the neck. Artificial cerebrospinal fluid (aCSF) was made as described by Sorkin et al. (J. Neurosci. Methods, 23, 131–138 (1988)) and was infused (5 microliters/minute) for 1.5 hours and then the tube was heat-sealed for use on the following day.
Dose response curves were generated for Genistein with animals receiving Genistein spinally at concentration of 0.2 mM (n=3), 0.5 mM (n=3), 1 mM (n=9), and 2 mM (n=3). Animals received Lavendustin A or B spinally at concentrations of 0.1 mM (n=3), 0.5 mM (n=3), and 1 mM (n=5) as a positive and negative control for Genistein. […] Daidzein was tested at a dose of 1 mM (n=3). […] Eight additional animals received the vehicle, 50% DMSO in aCSF, as a control.
An acute inflammatory response restricted to the knee joint can be induced by the injection of 3% kaolin and 3% carrageenan (in sterile saline; 0.1 ml; pH 7.4) into the joint cavity while the animal is briefly anesthetized with sodium methohexital (Brevital, 60 mg/kg, i.p.). Kaolin and carrageenan were obtained from Fisher Scientific, St. Louis, Mo. The knee joint is flexed manually until the rat awakes (approximately 5–10 minutes). In this arthritis model in the awake rat, localized joint swelling, as well as limping and guarding of the limb, are well developed at 4 hours (Sluka et al., Pain, 59, 95–100 (1994)) when behavioral testing begins.
Fifty-five rats were used for behavioral studies. Four hours after induction of the arthritis, the joint is swollen and increased withdrawal responses to radiant heat and spontaneous guarding of the limb were noted. The increased responsiveness to noxious stimuli indicates the presence of secondary hyperalgesia. […]

NR1 subunit [2] = assay: Immunocytochemistry of NR1 translocation in neuroblastoma clonal line SHSY5Y; type: cell-based, human; details: neuroblastoma clonal cell model
NR1 subunit [3] = assay: Immunocytochemistry of NR1 translocation in synovial clonal line SW982; type: cell-based, human; details: synovial clonal cell model
Protocol: (§1) The cultured cell lines used in these studies were the human neuroblastoma clonal line, SHSY5Y, and the human synovial sarcoma clonal line, SW982, both available through the American Tissue Type Culture Collection (item number CRL 2266 and HTB-93, respectively). Cells were grown in Dulbecco's Modification of Eagles Medium (DMEM) without L-glutamine, with 4.5 grams/Liter glucose, and with 10% bovine fetal serum in a tissue culture incubator at 37° C. in a gaseous mixture of O2/CO2. Cells were routinely split as necessary to maintain proper cell density. Cells were removed from plates by adding TRYPSIN/EDTA in Hank's Balanced Salt solution. After cell counts, approximately 10,000 cells were plated per well in a culture dish. For experiments, the cells were plated into 35 mm Petri dishes or 6- or 24-well plates as needed.
For immunocytochemistry experiments and some western blot experiments, SW982 cells were exposed to glutamate (1 μM to 10 μM), or glutamate analog NMDA (or related glutamate compound)(5 μM) and Genistein (10 mM). At various timepoints of exposure, including 4, 12, and 24 hours, cells were collected for Western blot measurement of NR1 or fixed with aldehydes and stained to visualize the location of glutamate receptor subunit NR1 using a specific antibody directed to either the C-terminus or the N-terminus of the NR1 protein. […]

NR1 subunit [4] = assay: Western blot of NR1 in cytosolic and nuclear extracts of SW982 cells; type: cell-based, human; details: 12 hours, increasing concentrations of NMDA
Protocol: as §1, with “needed. […]” for “needed.”
Western blot analysis was used to measure NR1 in both nuclear and cytosolic or total protein extracts using established methods (Kaufmann et al., J. Neurochem., 76, 1099–1108 (2001)). […] After three washes with Tris-buffered saline, immunoreactive bands were detected by a chemiluminescent Western blot detection kit (Amersham, Buckingamshire, UK, Catalog Number RPN2106) according to the manufacturer's instructions.

Row | SMILES | PTK inhibitory activity [1] | effect on NMDA currents (NMDA currents) | development of secondary hyperalgesia (rat arthritis model) | NR translocation to the nucleus (NR1 subunit [2]) | NR translocation to the nucleus (NR1 subunit [3]) | NR1 in the cytosol (NR1 subunit [4]) | NR1 in the nuclear compartment (NR1 subunit [4])
1 | O=c1c(-c2ccc(O)cc2)coc2cc(O)ccc12 [Daidzein] | lacks PTK inhibitory activity | has no effect on NMDA currents | ineffective in altering the nociceptive outcome of knee joint inflammation |  |  |  | 
2 | CN[C@H](CC(=O)O)C(=O)O [NMDA, N-methyl-D-aspartate] |  |  |  | replicated the visualization of NR translocation to the nucleus | replicated the visualization of NR translocation to the nucleus | dose-dependent reduction of NR1 in the cytosol | appearance of NR1 in the nuclear compartment
